Results: patent US9051275B2, “4-[-2-[[5-methyl-1-(2-naphtalenyl)-1H-pyrazol-3-yl]oxy]ethyl]morpholine hydrochloride polymorphs and solvates” (Laboratories Del Dr. Esteve, S.A., priority 2010, dated 2015)

Legend:
sigma-1 (σ-1) receptor = sigma-1 (σ-1) receptor (Homo sapiens, UniProt Q99720); details: cited from earlier work
[1] = treatment and prevention of chronic and acute pain, particularly neuropathic pain; cited from earlier work
[2] = Grinding of P027 phase I with catalytic solvent in a ball mill, PXRD analysis; type: physicochemical
Experimental: Approximately 40 mg of P027 phase I were transferred to a ball mill container together with catalytic quantities of the relevant solvent (three drops). The P027 phase I and the solvent were grinded at a maximum frequency of 30 s^−1 for 30 minutes (see Table 23).
The solid samples obtained were analyzed by PXRD. […] FIG. 18 illustrates the PXRD pattern of a phase I form obtained from grinding P027 together with dichloromethane.

[3] = Pressure: tablets of P027 phase I in a hydraulic press, PXRD analysis; type: physicochemical
Experimental: Tablets of P027 phase I were prepared in a hydraulic press at three different pressures (5, 7.5 and 10 tons) for three different times (5, 30 and 90 minutes) [see Table 24].
The solid samples obtained were analyzed by PXRD. […] FIG. 19 illustrates the PXRD pattern of a phase I form obtained by applying a pressure of […] to P027 for 90 minutes.

[4] = 1H NMR check of the stability of the salt in phase I samples; type: physicochemical; details: several samples of phase I from different crystallizations
Experimental: In addition, several samples of phase I were analyzed by ^1H NMR in order to check the stability of the salt.

[5] = Solubility of P027 in different solvents at room temperature (visual, successive solvent additions); type: physicochemical; details: thermodynamic from solid
Experimental: In order to plan the crystallization screening, […] table 6 using the following methodology (table 7): […] solvent and successive additions (initially 0.2 mL and finally 0.5 mL) of solvent until the solid was completely dissolved or up to a maximum of 8 mL were performed. After each solvent addition the suspension was vigorously stirred for 10-15 minutes and visually inspected to determine if the solid was completely dissolved.

[6] = Descriptive solubility of the P027 compound; type: physicochemical
[7] = Dissolution and absorption profile in vivo compared with the related base; details: compared with its related base
[8] = drying for 4 hours at 60° C., 80° C. and 100° C.
sigma 2 (σ-2) site = sigma 2 (σ-2) site (Homo sapiens, UniProt Q5BJF2); details: cited from earlier work
sigma 1 (σ-1) site = sigma 1 (σ-1) site (Homo sapiens, UniProt Q99720); details: cited from earlier work
sigma 1 (σ-1) site, sequence (Q99720 whole entry): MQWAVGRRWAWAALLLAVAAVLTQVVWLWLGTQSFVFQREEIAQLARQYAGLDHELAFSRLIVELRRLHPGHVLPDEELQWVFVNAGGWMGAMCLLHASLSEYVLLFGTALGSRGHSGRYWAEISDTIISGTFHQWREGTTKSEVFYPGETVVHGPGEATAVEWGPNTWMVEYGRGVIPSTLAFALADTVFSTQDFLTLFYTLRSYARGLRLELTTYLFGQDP

sigma-1 (σ-1) receptor, sequence (Q99720 whole entry): as above
sigma 2 (σ-2) site, sequence (Q5BJF2 whole entry): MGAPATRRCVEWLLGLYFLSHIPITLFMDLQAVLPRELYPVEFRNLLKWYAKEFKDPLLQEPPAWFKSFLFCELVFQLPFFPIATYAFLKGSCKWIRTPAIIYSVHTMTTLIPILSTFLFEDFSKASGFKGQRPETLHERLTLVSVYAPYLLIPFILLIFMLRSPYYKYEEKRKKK

Compound: Cc1cc(OCCN2CCOCC2)nn1-c1ccc2ccccc2c1 [4-[2-[[5-methyl-1-(2-naphthalenyl)-1H-pyrazol-3-yl]oxy]ethyl]morpholine]
- sigma-1 (σ-1) receptor antagonism, selectivity (sigma-1 (σ-1) receptor): highly selective sigma-1 (σ-1) receptor antagonist
- analgesic activity [1]: strong analgesic activity

Compound: Cc1cc(OCCN2CCOCC2)nn1-c1ccc2ccccc2c1.Cl [P027 phase I, 4-[2-[[5-methyl-1-(2-naphthalenyl)-1H-pyrazol-3-yl]oxy]ethyl]morpholine hydrochloride phase I crystalline form]
- phase stability after grinding (PXRD) ([2]; ball mill, three drops of solvent (Table 23), 30 s^-1 for 30 minutes): stable after grinding
- phase stability after grinding (PXRD) ([2]; grinding together with dichloromethane (FIG. 18)): consistent with the standard phase I PXRD pattern demonstrating the phase stability
- phase stability under pressure (PXRD) ([3]; 5, 7.5 and 10 tons for 5, 30 and 90 minutes): stable under pressure
- phase stability under pressure (PXRD) ([3]; pressure of 30 tons for 90 minutes (FIG. 19)): consistent with the standard phase I PXRD pattern demonstrating the phase stability
- stability of the salt (1H NMR) [4]: no signs of the lost of HCl or decomposition

Compound: Cc1cc(OCCN2CCOCC2)nn1-c1ccc2ccccc2c1.Cl [P027, 4-[2-[[5-methyl-1-(2-naphthalenyl)-1H-pyrazol-3-yl]oxy]ethyl]morpholine hydrochloride]
- solubility ([5]; organic solvent or mixture, 1,1,1-Trichloroethane, room temperature): < 1200 µg/mL
- solubility ([5]; organic solvent or mixture, 1,2-Dichloroethane, room temperature): 15000 to 25000 µg/mL
- solubility ([5]; organic solvent or mixture, 2-Butanol, solid was dissolved at 60° C., left at room temperature, no solid observed): 3000 to 4000 µg/mL
- solubility ([5]; organic solvent or mixture, 3-Pentanone, solid was dissolved at 80° C., left at room temperature, no solid observed): 1000 to 2000 µg/mL
- solubility ([5]; organic solvent or mixture, Acetone, room temperature): 4000 to 5000 µg/mL
- solubility ([5]; organic solvent or mixture, Acetonitrile, solid was dissolved at 60° C., left at room temperature, no solid observed): 10000 to 20000 µg/mL
- solubility ([5]; organic solvent or mixture, Butyl amine, room temperature): > 50000 µg/mL
- solubility ([5]; organic solvent or mixture, Chlorobenzene, room temperature): < 1200 µg/mL
- solubility ([5]; organic solvent or mixture, Chloroform, room temperature): > 50000 µg/mL
- solubility ([5]; organic solvent or mixture, Cyclohexane, room temperature): < 1200 µg/mL
- solubility ([5]; organic solvent or mixture, Dichloromethane, room temperature): > 50000 µg/mL
- solubility ([5]; organic solvent or mixture, Diethoxymethane, room temperature): < 1200 µg/mL
- solubility ([5]; organic solvent or mixture, Diisopropyl ether, room temperature): < 1200 µg/mL
- solubility ([5]; organic solvent or mixture, Dimethoxymethane, room temperature): < 1200 µg/mL
- solubility ([5]; organic solvent or mixture, Dimethylcarbonate, solid was dissolved at 80° C., left at room temperature, no solid observed): 1000 to 2000 µg/mL
- solubility ([5]; organic solvent or mixture, Dimethylformamide, room temperature): > 50000 µg/mL
- solubility ([5]; organic solvent or mixture, Dimethylsulfoxide, room temperature): > 50000 µg/mL
- solubility ([5]; organic solvent or mixture, Dioxane, solid was dissolved at 80° C., left at room temperature, no solid observed): 1000 to 2000 µg/mL
- solubility ([5]; organic solvent or mixture, Ethanol, room temperature): 15000 to 25000 µg/mL
- solubility ([5]; organic solvent or mixture, Ethyl acetate, room temperature): < 1200 µg/mL
- solubility ([5]; organic solvent or mixture, Isobutyl acetate, room temperature): < 1200 µg/mL
- solubility ([5]; organic solvent or mixture, Isopropanol, solid was dissolved at 60° C., left at room temperature, no solid observed): 4000 to 5000 µg/mL
- solubility ([5]; organic solvent or mixture, Isopropyl acetate, room temperature): < 1200 µg/mL
- solubility ([5]; organic solvent or mixture, Methanol, room temperature): > 50000 µg/mL
- solubility ([5]; organic solvent or mixture, Methyl acetate, room temperature): < 1200 µg/mL
- solubility ([5]; organic solvent or mixture, Methyl ethyl ketone, solid was dissolved at 60° C., left at room temperature, no solid observed): 2000 to 4000 µg/mL
- solubility ([5]; organic solvent or mixture, Methyl isobutyl ketone, room temperature): < 1200 µg/mL
- solubility ([5]; organic solvent or mixture, Methyl tert-butyl ether, room temperature): < 1200 µg/mL
- solubility ([5]; organic solvent or mixture, N,N-Dimethylacetamide, room temperature): 25000 to 50000 µg/mL
- solubility ([5]; organic solvent or mixture, Nitromethane, room temperature): 25000 to 50000 µg/mL
- solubility ([5]; organic solvent or mixture, Propyl acetate, room temperature): < 1200 µg/mL
- solubility ([5]; organic solvent or mixture, Pyridine, room temperature): 25000 to 50000 µg/mL
- solubility ([5]; organic solvent or mixture, Tetrahydrofuran, room temperature): < 1200 µg/mL
- solubility ([5]; organic solvent or mixture, Toluene, room temperature): < 1200 µg/mL
- solubility ([5]; organic solvent or mixture, Triethylamine, room temperature): < 1200 µg/mL
- solubility ([5]; organic solvent or mixture, Xylene, room temperature): < 1200 µg/mL
- solubility ([5]; organic solvent or mixture, n-Butanol, solid was dissolved at 60° C., left at room temperature, no solid observed): 5000 to 10000 µg/mL
- solubility ([5]; organic solvent or mixture, n-Heptane, room temperature): < 1200 µg/mL
- solubility ([5]; organic solvent or mixture, n-Hexane, room temperature): < 1200 µg/mL
- solubility ([5]; Water, room temperature): > 50000 µg/mL
- solubility in 1N hydrochloric acid ([6]; 1N hydrochloric acid): freely soluble
- solubility in 1N sodium hydroxide ([6]; 1N sodium hydroxide): practically insoluble
- solubility in acetone ([6]; acetone): slightly soluble
- solubility in dimethyl sulphoxide ([6]; dimethyl sulphoxide): freely soluble
- solubility in ethanol ([6]; ethanol): sparingly soluble
- solubility in ethyl acetate ([6]; ethyl acetate): practically insoluble
- solubility in methanol ([6]; methanol): freely soluble
- solubility in water ([6]; water): very soluble
- dissolution and absorption profile in vivo [7]: better dissolution and absorption profile in vivo than its related base

Compound: C1COCCO1.Cc1cc(OCCN2CCOCC2)nn1-c1ccc2ccccc2c1.Cl [dioxane solvate, 4-[2-[[5-methyl-1-(2-naphthalenyl)-1H-pyrazol-3-yl]oxy]ethyl]morpholine hydrochloride solvate with dioxane]
- solid form after drying (PXRD) [8]: transformation to Phase I was observed

Compound: SKF 10047
- affinity for the sigma 2 (σ-2) site (sigma 2 (σ-2) site): micromolar
- affinity for the sigma 1 (σ-1) site (sigma 1 (σ-1) site): nanomolar
